row,Structure (SMILES),melting point
1,"COc1cc(COc2nn(-c3ccccc3)cc2/C=C/C(=O)O)ccc1OCc1nc(-c2ccco2)oc1C [Example 79, (2E)-3-{3-[(4-{[2-(2-furyl)-5-methyl-1,3-oxazol-4-yl]methoxy}-3-methoxybenzyl)oxy]-1-phenyl-1H-pyrazol-4-yl}-2-propenoic acid]",204 to 205 °C
2,"Cc1oc(-c2ccccc2)nc1COc1ccc(COc2nn(-c3ccccc3)cc2CO)cc1 [Example 81, [3-({4-[(2-phenyl-5-methyl-1,3-oxazol-4-yl)methoxy]benzyl}oxy)-1-phenyl-1H-pyrazol-4-yl]methanol]",118 to 119 °C
3,"Cc1oc(-c2ccccc2)nc1COc1ccc(COc2nn(-c3ccccc3)cc2/C=C/C(=O)O)cc1 [Example 83, (2E)-3-[3-({4-[(2-phenyl-5-methyl-1,3-oxazol-4-yl)methoxy]benzyl}oxy)-1-phenyl-1H-pyrazol-4-yl]-2-propenoic acid]",186 to 187 °C
4,"Cc1oc(-c2ccco2)nc1COc1ccc(COc2nn(-c3ccccc3)cc2C=O)cc1 [Example 85, 3-[(4-{[2-(2-furyl)-5-methyl-1,3-oxazol-4-yl]methoxy}benzyl)oxy]-1-phenyl-1H-pyrazole-4-carbaldehyde]",148 to 149 °C
5,"CCOC(=O)/C=C/c1cn(-c2ccccc2)nc1OCc1ccc(OCc2nc(-c3ccco3)oc2C)cc1 [Example 87, ethyl (2E)-3-(3-[(4-{[2-(2-furyl)-5-methyl-1,3-oxazol-4-yl]methoxy}benzyl)oxy]-1-phenyl-1H-pyrazol-4-yl}-2-propenoate]",142 to 143 °C
6,"Cc1oc(-c2ccco2)nc1COc1ccc(COc2nn(-c3ccccc3)cc2/C=C/C(=O)O)cc1 [Example 88, (2E)-3-{3-[(4-{[2-(2-furyl)-5-methyl-1,3-oxazol-4-yl]methoxy}benzyl)oxy]-1-phenyl-1H-pyrazol-4-yl}-2-propenoic acid]",144 to 145 °C
7,"Cc1oc(-c2ccco2)nc1COc1ccc(COc2nn(-c3ccccc3)cc2C#N)cc1 [Example 89, 3-[(4-{[2-(2-furyl)-5-methyl-1,3-oxazol-4-yl]methoxy}benzyl)oxy]-1-phenyl-1H-pyrazole-4-carbonitrile]",158 to 159 °C
8,"COc1cc(COc2nn(-c3ccccc3)cc2/C=C/C(N)=O)ccc1OCc1nc(-c2ccco2)oc1C [Example 94, (2E)-3-{3-[(4-{[2-(2-furyl)-5-methyl-4-oxazolyl]methoxy}-3-methoxybenzyl)oxy]-1-phenyl-1H-pyrazol-4-yl}-2-propenamide]",187 to 188 °C
9,"COc1cc(COc2nn(-c3ccccc3)cc2C=C(C#N)C#N)ccc1OCc1nc(-c2ccco2)oc1C [Example 96, ({3-[(4-{[2-(2-furyl)-5-methyl-1,3-oxazol-4-yl]methoxy}-3-methoxybenzyl)oxy]-1-phenyl-1H-pyrazol-4-yl)methylene) malononitrile]",190 to 191 °C
10,"COc1cc(COc2nn(-c3ccccc3)cc2/C=C/C(=O)N2CCOCC2)ccc1OCc1nc(-c2ccco2)oc1C [Example 98, 4-((2E)-3-{3-[(4-{[2-(2-furyl)-5-methyl-1,3-oxazol-4-yl]methoxy}-3-methoxybenzyl)oxy]-1-phenyl-1H-pyrazol-4-yl}-2-propenoyl)morpholine]",180 to 181 °C
11,"CNCc1cn(-c2ccccc2)nc1OCc1ccc(OCc2nc(-c3ccco3)oc2C)c(OC)c1 [Example 102, N-({3-[(4-{[2-(2-furyl)-5-methyl-1,3-oxazol-4-yl]methoxy}-3-methoxybenzyl)oxy]-1-phenyl-1H-pyrazol-4-yl}methyl)-N-methylamine]",103 to 104 °C
12,"COc1cc(COc2nn(-c3ccccc3)cc2CCO)ccc1OCc1nc(-c2ccco2)oc1C [Example 104, 2-{3-[(4-{[2-(2-furyl)-5-methyl-1,3-oxazol-4-yl]methoxy}-3-methoxybenzyl)oxy]-1-phenyl-1H-pyrazol-4-yl}ethanol]",123 to 124 °C
13,"COc1cc(COc2nn(-c3ccccc3)cc2CC2SC(=O)N(C)C2=O)ccc1OCc1nc(-c2ccco2)oc1C (stereo not drawn) [Example 106, 5-({3-[(4-{[2-(2-furyl)-5-methyl-1,3-oxazol-4-yl]methoxy}-3-methoxybenzyl)oxy]-1-phenyl-1H-pyrazol-4-yl}methyl)-3-methyl-1,3-thiazolidine-2,4-dione]",111 to 112 °C
14,"COc1cc(COc2nn(-c3ccccc3)cc2-c2cnco2)ccc1OCc1nc(-c2ccco2)oc1C [Example 107, 2-(2-furyl)-4-{[2-methoxy-4-({[4-(1,3-oxazol-5-yl)-1-phenyl-1H-pyrazol-3-yl]oxy}methyl)phenoxy]methyl}-5-methyl-1,3-oxazole]",153 to 154 °C
15,"COc1cc(COc2nn(-c3ccccc3)cc2/C=C/CO)ccc1OCc1nc(-c2ccco2)oc1C [Example 108, (2E)-3-{3-[(4-([2-(2-furyl)-5-methyl-1,3-oxazol-4-yl]methoxy}-3-methoxybenzyl)oxy]-1-phenyl-1H-pyrazol-4-yl}-2-propen-1-ol]",120 to 121 °C
16,"COc1cc(COc2nn(-c3ccccc3)cc2/C=C/c2cscn2)ccc1OCc1nc(-c2ccco2)oc1C [Example 111 (E form), 2-(2-furyl)-4-({2-methoxy-4-[({1-phenyl-4-[(E)-2-(1,3-thiazol-4-yl)ethenyl]-1H-pyrazol-3-yl}oxy)methyl]phenoxy)methyl)-5-methyl-1,3-oxazole]",136 to 137 °C

# The next lines start with the values.
row,melting point,Structure (SMILES)
1,177 to 178 °C,"CCOC(=O)/C=C/c1cn(-c2ccccc2)nc1OCc1ccc(OCc2nc(-c3ccco3)oc2C)c(OC)c1 [Example 78, ethyl (2E)-3-{3-[(4-{[2-(2-furyl)-5-methyl-1,3-oxazol-4-yl]methoxy}-3-methoxybenzyl)oxy]-1-phenyl-1H-pyrazol-4-yl}-2-propenoate]"
2,152 to 153 °C,"Cc1oc(-c2ccccc2)nc1COc1ccc(COc2nn(-c3ccccc3)cc2C=O)cc1 [Example 80, 3-({4-[(2-phenyl-5-methyl-1,3-oxazol-4-yl)methoxy]benzyl}oxy)-1-phenyl-1H-pyrazole-4-carbaldehyde]"
3,154 to 155 °C,"CCOC(=O)/C=C/c1cn(-c2ccccc2)nc1OCc1ccc(OCc2nc(-c3ccccc3)oc2C)cc1 [Example 82, ethyl (2E)-3-[3-({4-[(2-phenyl-5-methyl-1,3-oxazol-4-yl)methoxy]benzyl}oxy)-1-phenyl-1H-pyrazol-4-yl]-2-propenoate]"
4,157 to 158 °C,"Cc1oc(-c2ccccc2)nc1COc1ccc(OCc2nc(-c3ccccc3)oc2CO)cc1 [Example 91, [4-({4-[(5-methyl-2-phenyl-1,3-oxazol-4-yl)methoxy]phenoxy}methyl)-2-phenyl-1,3-oxazol-5-yl]methanol]"
5,74 to 75 °C,"COCOCc1nc(-c2ccccc2)oc1COc1ccc(OCc2nc(-c3ccccc3)oc2C)cc1 [Example 92, 4-[(methoxymethoxy)methyl]-5-({4-[(5-methyl-2-phenyl-1,3-oxazol-4-yl)methoxy]phenoxy}methyl)-2-phenyl-1,3-oxazole]"
6,143 to 144 °C,"Cc1oc(-c2ccccc2)nc1COc1ccc(OCc2oc(-c3ccccc3)nc2CO)cc1 [Example 93, [5-({4-[(5-methyl-2-phenyl-1,3-oxazol-4-yl)methoxy]phenoxy}methyl)-2-phenyl-1,3-oxazol-4-yl]methanol]"
7,177 to 178 °C,"COc1cc(COc2nn(-c3ccccc3)cc2/C=C/C#N)ccc1OCc1nc(-c2ccco2)oc1C [Example 95, (2E)-3-{3-[(4-{[2-(2-furyl)-5-methyl-1,3-oxazol-4-yl]methoxy}-3-methoxybenzyl)oxy]-1-phenyl-1H-pyrazol-4-yl}-2-propenenitrile]"
8,162 to 163 °C,"COc1cc(COc2nn(-c3ccccc3)cc2/C=C/C2=NCCO2)ccc1OCc1nc(-c2ccco2)oc1C [Example 99, 4-({4-[({4-[(E)-2-(4,5-dihydro-1,3-oxazol-2-yl)ethenyl]-1-phenyl-1H-pyrazol-3-yl}oxy)methyl]-2-methoxyphenoxy}methyl)-2-(2-furyl)-5-methyl-1,3-oxazole]"
9,121 to 122 °C,"COCc1cn(-c2ccccc2)nc1OCc1ccc(OCc2nc(-c3ccco3)oc2C)c(OC)c1 [Example 101, 2-(2-furyl)-4-{[2-methoxy-4-({[4-(methoxymethyl)-1-phenyl-1H-pyrazol-3-yl]oxy}methyl)phenoxy]methyl}-5-methyl-1,3-oxazole]"
10,215 to 216 °C,"COc1cc(COc2nn(-c3ccccc3)cc2/C=C2\SC(=O)N(C)C2=O)ccc1OCc1nc(-c2ccco2)oc1C [Example 105, (5Z)-5-({3-[(4-{[2-(2-furyl)-5-methyl-1,3-oxazol-4-yl]methoxy}-3-methoxybenzyl)oxy]-1-phenyl-1H-pyrazol-4-yl}methylene)-3-methyl-1,3-thiazolidine-2,4-dione]"
11,134 to 135 °C,"COc1cc(COc2nn(-c3ccccc3)cc2/C=C/C=O)ccc1OCc1nc(-c2ccco2)oc1C [Example 109, (2E)-3-{3-[(4-{[2-(2-furyl)-5-methyl-1,3-oxazol-4-yl]methoxy}-3-methoxybenzyl)oxy]-1-phenyl-1H-pyrazol-4-yl}-2-propenaldehyde]"
12,115 to 116 °C,"C=CC(c1cn(-c2ccccc2)nc1OCc1ccc(OCc2nc(-c3ccco3)oc2C)c(OC)c1)n1cncn1 (stereo not drawn) [Example 110, 1-(1-{3-[(4-{[2-(2-furyl)-5-methyl-1,3-oxazol-4-yl]methoxy}-3-methoxybenzyl)oxy]-1-phenyl-1H-pyrazol-4-yl}-2-propenyl)-1H-1,2,4-triazole]"
13,137 to 138 °C,"COc1cc(COc2nn(-c3ccccc3)cc2/C=C\c2cscn2)ccc1OCc1nc(-c2ccco2)oc1C [Example 111 (Z form), 2-(2-furyl)-4-({2-methoxy-4-[({1-phenyl-4-[(Z)-2-(1,3-thiazol-4-yl)ethenyl]-1H-pyrazol-3-yl}oxy)methyl]phenoxy}methyl)-5-methyl-1,3-oxazole]"
14,135 to 136 °C,"COc1cc(COc2nn(-c3ccccc3)cc2/C=C/c2ccccn2)ccc1OCc1nc(-c2ccco2)oc1C [Example 113, 2-((E)-2-{3-[(4-{[2-(2-furyl)-5-methyl-1,3-oxazol-4-yl]methoxy}-3-methoxybenzyl)oxy]-1-phenyl-1H-pyrazol-4-yl}ethenyl)pyridine]"
